Data as given in paper PMC10223552 (Pharmaceuticals, 2023).
Read-outs that look alike come from different tables or passages of the source.

Tests used:
[1] = biological target: T1, hH3R (Homo sapiens, UniProt Q9Y5N1); assay: biochemical; assay type: binding
T1 construct: expressed in transfected cells
Protocol: All newly synthesized compounds were evaluated as H3R antagonists/inverse agonists on the guinea pig ileum (gpH3R), stimulated electrically to induce contractions. The distinct affinity profile and species-dependent pharmacology of H3R ligands are known. […] Therefore, to compare species differences, all newly synthesized compounds were subjected to radioligand displacement assay in membrane fractions of HEK-293 cells stably expressing hH3R. […] Ex vivo assay for histamine H3R and H1R antagonists were measured on the isolated guinea pig ileum stimulated to contractions by histamine. The pA2-values were calculated according to Arunlakshana and Schild. The radioligand-displacement binding assay was performed in membrane fractions of HEK-293 cells stably expressing hH3R. Cell cultivation and membrane preparation was performed according to Kottke et al.. The Ki values were calculated from the IC50 values using the Cheng–Prusoff equation [37]. The statistical calculations were performed on –log(Ki). […] The inhibitory activities of novel ADS compounds were assessed in spectrophotometric Ellman’s assay using AChE from electric eel (eeAChE) and BuChE from horse serum (eqBuChE).
3.3 hH3R radioligand displacement binding assay.
The radioligand displacement binding assay was performed in membrane fractions of HEK-293 cells stably expressing hH3R. Cell cultivation and membrane preparation was performed according to Kottke et al. [T. Kottke, […]
radioligand displacement assay, radioactively labeled [3H]Nα-methylhistamine was used at a final concentration […]
The total assay volume was set to 200 µL. The compounds were tested in several appropriate concentrations between 100 µM and 0.1 nM. Pipetting was partly done by Freedom Evo® (Tecan).
The membrane fraction (20 […]
µg/well), test compounds and radiolabeled ligand were incubated for 90 minutes at 25 °C while shaking. The bound radioligand was separated from the free radioligand by filtration through GF/B filters pre-treated with 0.3 % (m/v) polyethyleneimine using a cell harvester. Radioactivity was determined by liquid scintillation counting using a MicroBeta® Trilux (Perkin Elmer). The data was obtained in duplicates in at least three independent experiments. Non-specific binding was subtracted from the raw data to calculate specific-binding values. The evaluation was performed with GraphPad Prism 6.1 (San Diego, CA, USA) using non-linear regression (one-site competition with a logarithmic scale). The Ki values were calculated from the IC50 values using the Cheng-Prusoff […]
equation. [C. […] The statistical calculations […]
were performed on –log(Ki).

[2] = biological target: T2, gpH3R (Cavia porcellus, UniProt Q9JI35); assay: Ex vivo assay for histamine H3R antagonists on electrically stimulated guinea pig ileum
T2 construct: from tissue; host or cells: isolated distal ileum of male guinea pigs
T2 sequence (Q9JI35 whole entry): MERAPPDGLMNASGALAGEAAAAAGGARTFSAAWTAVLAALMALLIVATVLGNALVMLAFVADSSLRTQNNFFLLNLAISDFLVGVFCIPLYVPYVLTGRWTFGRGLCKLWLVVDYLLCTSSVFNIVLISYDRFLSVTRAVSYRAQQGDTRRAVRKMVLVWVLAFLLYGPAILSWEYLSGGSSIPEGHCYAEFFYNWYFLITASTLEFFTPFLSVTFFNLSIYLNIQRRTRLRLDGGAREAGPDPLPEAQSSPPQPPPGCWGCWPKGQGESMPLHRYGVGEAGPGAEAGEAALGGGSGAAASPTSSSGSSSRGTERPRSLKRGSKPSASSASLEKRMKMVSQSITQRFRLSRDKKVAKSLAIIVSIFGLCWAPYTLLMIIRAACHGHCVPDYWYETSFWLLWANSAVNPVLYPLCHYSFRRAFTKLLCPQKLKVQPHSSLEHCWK
Protocol: All newly synthesized compounds were evaluated as H3R antagonists/inverse agonists on the guinea pig ileum (gpH3R), stimulated electrically to induce contractions. The distinct affinity profile and species-dependent pharmacology of H3R ligands are known. […] Therefore, to compare species differences, all newly synthesized compounds were subjected to radioligand displacement assay in membrane fractions of HEK-293 cells stably expressing hH3R.
(§1) Ex vivo assay for histamine H3R and H1R antagonists were measured on the isolated guinea pig ileum stimulated to contractions by histamine. The pA2-values were calculated according to Arunlakshana and Schild. The radioligand-displacement binding assay was performed in membrane fractions of HEK-293 cells stably expressing hH3R. Cell cultivation and membrane preparation was performed according to Kottke et al.. The Ki values were calculated from the IC50 values using the Cheng–Prusoff equation [37]. The statistical calculations were performed on –log(Ki). […] The inhibitory activities of novel ADS compounds were assessed in spectrophotometric Ellman’s assay using AChE from electric eel (eeAChE) and BuChE from horse serum (eqBuChE).
3. Pharmacological assay results.
3.1. Ex vivo assay for histamine H3R receptor antagonists on guinea pig ileum.
Male guinea pigs, weighing 300-400 g were euthanized by a blow to the neck. Following this, a 20-30 cm length of the distal ileum, apart from the terminal 5 cm was rapidly removed and placed in phosphate buffer at room […]
indomethacin (Sigma-Aldrich, St. Louis, MO, USA) (1·10-6 mol/L). The intraluminal content was rinsed and the isolated intestine was cut into 1.5-2 cm segments. The preparations were mounted between two platinum electrodes […]
load of 1.0 g (Hugo Sachs Hebel-Messvorsatz (Tl-2)/HF-modem; Hugo Sachs Elektronik, Hugstetten, Germany) connected to a pen recorder (Kipp & Zonen BD41, Delft, Holland). During an equilibration period of 60 min, the Krebs buffer was changed every 10 min. The preparations were then continuously stimulated at 15-20 V at a frequency of 0.1 Hz for a duration of 0.5 ms, with rectangular-wave electrical pulses (Grass Stimulator S-88; Grass Instruments Co., Quincy, Massachusetts, USA). […] Five minutes […]
before (R)-(−)-α-methylhistamine (RAMH) (Toronto Research Chemicals Inc., North York, Canada), […]
added. The first cumulative concentration-response curve was determined to RAMH (10 nM – 10 mM) at an […]
The second to fourth curve was measured against increasing antagonist concentration (incubation time 20 min). The pA2-values were calculated according to Arunlakshana and Schild. [Br J Pharmacol Chemother. […] Statistical analysis was carried out with the Students’ t-test. In all tests, a p<0.05 was considered statistically significant. The pA2 values were compared with the affinity of thioperamide (Sigma-Aldrich, St. Louis, MO, USA).

[3] = biological target: T3, gpH1R (Cavia porcellus, UniProt P31389); assay: Ex vivo assay for histamine H1R antagonists on guinea pig ileum stimulated by histamine (+atropine); conditions: gpH1R +Atropine pA2 ± sem, isolated guinea pig ileum, vs histamine, 0.05 µM atropine
T3 construct: from tissue; host or cells: isolated distal ileum of male guinea pigs
T3 sequence (P31389 whole entry): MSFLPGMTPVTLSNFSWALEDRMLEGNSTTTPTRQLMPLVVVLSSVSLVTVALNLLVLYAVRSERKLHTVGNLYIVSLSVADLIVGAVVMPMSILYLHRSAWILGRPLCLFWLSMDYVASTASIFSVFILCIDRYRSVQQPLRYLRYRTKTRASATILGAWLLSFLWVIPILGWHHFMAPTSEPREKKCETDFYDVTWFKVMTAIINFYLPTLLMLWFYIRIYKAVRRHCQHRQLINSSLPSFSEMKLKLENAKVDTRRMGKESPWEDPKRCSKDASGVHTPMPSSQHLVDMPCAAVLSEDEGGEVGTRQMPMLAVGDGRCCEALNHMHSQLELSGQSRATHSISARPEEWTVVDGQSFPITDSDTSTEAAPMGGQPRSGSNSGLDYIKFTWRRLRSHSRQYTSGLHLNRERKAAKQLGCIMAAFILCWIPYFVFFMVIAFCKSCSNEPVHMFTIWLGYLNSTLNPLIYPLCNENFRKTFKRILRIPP
Protocol: A second histamine receptor located in the guinea pig ileum is H1R. The antagonistic effect at H1R was measured on the isolated guinea pig ileum stimulated to contractions by histamine. To eliminate the impact of muscarinic receptors located on the tested tissue, 0.05 µM of atropine was added to the Krebs buffer.
as §1
3.2 Ex vivo assay for histamine H1R receptor antagonists on guinea pig ileum.
Male guinea pigs, weighing 300-400 g were euthanized by a blow to the neck. A 20-30 cm length of the distal ileum, apart from the terminal 5 cm was rapidly removed and placed in phosphate buffer at room temperature (pH […]
Aldrich, St. Louis, MO, USA) (1·10-6 mol/L). The intraluminal content was rinsed and the isolated intestine was cut into 1.5-2 cm segments. The preparations were mounted isotonically in a 20 mL organ bath filled with Krebs […]
a constant load of 0.5 g (Hugo Sachs Hebel-Messvorsatz (Tl-2)/HF-modem; Hugo Sachs Elektronik, Hugstetten, Germany) connected to a pen recorder (Kipp & Zonen BD41, Delft, Holland). During an equilibration period of 40 min, the Krebs buffer was changed every 10 min. The first cumulative concentration-response curve was determined to histamine (Sigma-Aldrich, St. Louis, MO, USA) (10 nM - 10 mM) at increasing concentration spaced by three or 3.3-fold. The second to the fourth (or fifth) curve was measured in the presence of an increasing concentration of antagonist (incubation time 10 min). The pA2-values were calculated according to Arunlakshana and Schild. [Br J Pharmacol Chemother. […] Statistical analysis was carried out with the Students’ t-test. In all tests, a p<0.05 was considered statistically significant. The pA2 values were compared with the affinity

[4] = biological target: T4, eeAChE (Electrophorus electricus, UniProt O42275); assay: biochemical; set-up: species or system electric eel; conditions: for inhibition at 10 µM: read-out: eeAChE % inh. (10 µM) ± SD
T4 construct: purchased Sigma–Aldrich (Steinheim, Germany)
T4 sequence (O42275 24-633): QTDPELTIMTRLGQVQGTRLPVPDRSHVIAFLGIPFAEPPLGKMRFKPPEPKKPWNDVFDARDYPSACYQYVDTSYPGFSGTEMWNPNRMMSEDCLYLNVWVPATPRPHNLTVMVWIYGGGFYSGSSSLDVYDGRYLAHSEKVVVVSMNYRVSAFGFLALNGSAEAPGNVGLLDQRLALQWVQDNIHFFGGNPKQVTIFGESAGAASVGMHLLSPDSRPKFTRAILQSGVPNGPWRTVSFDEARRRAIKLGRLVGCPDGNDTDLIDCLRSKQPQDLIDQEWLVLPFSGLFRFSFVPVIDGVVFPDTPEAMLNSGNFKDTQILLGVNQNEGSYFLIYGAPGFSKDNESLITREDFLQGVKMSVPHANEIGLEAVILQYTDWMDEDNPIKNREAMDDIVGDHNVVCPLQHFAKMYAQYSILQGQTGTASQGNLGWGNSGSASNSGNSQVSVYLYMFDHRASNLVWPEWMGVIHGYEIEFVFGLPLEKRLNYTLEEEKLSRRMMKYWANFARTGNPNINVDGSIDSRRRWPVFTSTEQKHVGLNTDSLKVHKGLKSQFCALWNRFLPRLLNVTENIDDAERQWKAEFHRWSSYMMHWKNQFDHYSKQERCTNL

[5] = biological target: eqBuChE (Equus caballus, UniProt P81908); assay: biochemical; conditions: for inhibition at 10 µM: read-out: eqBuChE % inh. (10 µM) ± SD; for IC50: read-out: eqBuChE IC50 ± sem
Chain of eqBuChE (P81908 whole entry): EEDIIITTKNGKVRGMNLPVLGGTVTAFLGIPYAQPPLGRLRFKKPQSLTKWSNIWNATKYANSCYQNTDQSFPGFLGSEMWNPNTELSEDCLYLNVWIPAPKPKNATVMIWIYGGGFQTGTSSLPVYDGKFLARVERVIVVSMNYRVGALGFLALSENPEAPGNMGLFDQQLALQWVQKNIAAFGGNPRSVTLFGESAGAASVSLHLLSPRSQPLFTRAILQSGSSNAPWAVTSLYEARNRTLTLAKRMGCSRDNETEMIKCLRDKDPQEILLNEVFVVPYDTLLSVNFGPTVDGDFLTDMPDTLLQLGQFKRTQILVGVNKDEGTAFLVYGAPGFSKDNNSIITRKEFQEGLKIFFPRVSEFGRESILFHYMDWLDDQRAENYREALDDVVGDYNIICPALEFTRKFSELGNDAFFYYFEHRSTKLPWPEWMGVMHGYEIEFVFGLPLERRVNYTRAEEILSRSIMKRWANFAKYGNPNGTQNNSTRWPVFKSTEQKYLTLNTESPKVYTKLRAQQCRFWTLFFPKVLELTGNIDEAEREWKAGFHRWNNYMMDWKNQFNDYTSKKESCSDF

[6] = mean ± sem, at least three independent experiments, read-out: hH3R -log(Ki) ± sem (converted)
[7] = hH3R -log(Ki) ± sem, mean ± sem, at least three independent experiments
[8] = isolated guinea pig ileum, vs RAMH, read-out: gpH3R pA2 ± sem (converted)

T1 sequence (Q9Y5N1 whole entry): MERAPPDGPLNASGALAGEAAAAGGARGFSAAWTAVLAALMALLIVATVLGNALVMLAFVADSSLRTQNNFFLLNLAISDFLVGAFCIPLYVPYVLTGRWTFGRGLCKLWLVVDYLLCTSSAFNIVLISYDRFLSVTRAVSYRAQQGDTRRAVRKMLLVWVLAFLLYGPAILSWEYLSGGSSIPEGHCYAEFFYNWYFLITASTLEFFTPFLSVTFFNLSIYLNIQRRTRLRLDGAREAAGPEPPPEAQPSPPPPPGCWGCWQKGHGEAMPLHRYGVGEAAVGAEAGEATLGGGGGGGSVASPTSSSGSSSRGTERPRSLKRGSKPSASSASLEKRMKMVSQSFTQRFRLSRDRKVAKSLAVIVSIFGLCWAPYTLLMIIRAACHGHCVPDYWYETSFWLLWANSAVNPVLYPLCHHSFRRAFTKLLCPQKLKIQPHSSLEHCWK

Row | SMILES | Ki [1, 6] [nM] | gpH3R pA2 ± sem ([2]; isolated guinea pig ileum, vs RAMH, 20 min) | Kb [3] [nM] | Kb [2] [nM] | inhibition at 10 µM [4] [%] | inhibition at 10 µM [5] [%] | IC50 [5] [nM] | Ki [1, 7] [nM] | IC50 ([4]; eeAChE IC50 ± sem) [nM] | Kb [2, 8] [nM] | Ki ([1]; hH3R Ki) [nM] | Kd ([1]; radioligand used at 2 nM) [nM]
1 | N=C(N)N(CCCCN1CCN(CCCCCCCOc2ccccc2)CC1)Cc1ccc(C(F)(F)F)cc1 [ADS1020] | 437 | 8.49 ± 0.05 | 871 | – | – | – | – | – | – | – | – | –
2 | N=C(N)N(CCCCN1CCN(CCCOCCCc2ccc(Cl)cc2)CC1)Cc1ccccc1 [ADS10278] | 324 | – | 117 | 14.8 | 44 ± 0.9 | 76.6 ± 1.3 | 2000 ± 100 | – | – | – | – | –
3 | N=C(N)N(CCCCN1CCN(CCCOCCCc2ccc(Cl)cc2)CC1)Cc1ccc(C(F)(F)F)cc1 [ADS10279] | – | – | 135 | 5.25 | 47.4 ± 1.2 | 67.5 ± 0.5 | 4800 ± 100 | 1070 | – | – | – | –
4 | N=C(N)N(CCCc1ccc(Cl)cc1)CCCN1CCCCC1 [ADS10292] | – | – | 1200 | 45.7 | 50.6 ± 0.8 | 54.3 ± 4.7 | 8400 ± 200 | 2690 | 10900 | – | – | –
5 | N=C(NCCCc1ccc(Cl)cc1)NCCCN1CCCCC1 [ADS10298] | – | – | 132 | – | 39.8 ± 2.6 | 20.3 ± 0.8 | – | 537 | – | 41.7 | – | –
6 | N=C(N)N(CCCCN1CCCCC1)CCCc1ccc(Cl)cc1 [ADS10300] | – | – | 2510 | 47.9 | 40.7 ± 1.8 | 75.2 ± 0.4 | 2400 ± 100 | 603 | – | – | – | –
7 | N=C(NCCCCN1CCCCC1)NCCCc1ccc(Cl)cc1 [ADS10301] | – | – | 347 | 22.9 | 11.3 ± 0.4 | 60.4 ± 0.7 | 5900 ± 100 | 191 | – | – | < 200 | –
8 | N=C(NCCCCc1ccc(Cl)cc1)NCCCN1CCCCC1 [ADS10306] | – | – | 67.6 | 47.9 | 17.8 ± 0.7 | 89.4 ± 0.1 | 1600 | 195 | – | – | < 200 | –
9 | N=C(N)N(CCCCc1ccc(Cl)cc1)CCCN1CCCCC1 [ADS10312] | – | – | 1380 | 93.3 | 22.2 ± 3.9 | 72.6 ± 5.2 | 3500 ± 100 | 525 | – | – | – | –
10 | N=C(N)N(CCCCN1CCN(CCCOCCCc2ccccc2)CC1)Cc1ccccc1 [ADS10349] | 2510 | – | 347 | 45.7 | 6.4 ± 1.3 | 32.4 ± 4.2 | – | – | – | – | – | –
11 | N=C(N)N(CCCCN1CCN(CCCOCCCc2ccccc2)CC1)Cc1ccc(C(F)(F)F)cc1 [ADS10350] | – | – | 269 | – | 1 ± 0.2 | 28.3 ± 3.2 | – | 2690 | – | 28.8 | – | –
12 | N=C(N)N(CCCCN1CCN(CCCCCCCOc2ccc(Cl)cc2)CC1)Cc1ccc(C(F)(F)F)cc1 [ADS10376] | – | – | 214 | 7.08 | 27.8 ± 5.1 | 71.4 ± 0.6 | 4900 ± 200 | 398 | – | – | – | –
13 | N=C(N)N(CCCCN1CCN(CCCCCCCOc2ccc(Cl)cc2)CC1)Cc1ccccc1 [ADS10377] | – | – | 123 | 15.1 | 34.3 ± 2.6 | 84.6 ± 1.5 | 1900 ± 100 | 282 | – | – | – | –
14 | S=C(NC1CCCCC1)N1CCC(c2cnc[nH]2)CC1 [Thioperamide, reference compound] | – | – | – | – | – | – | – | – | – | 1.55 | – | –
15 | CNCCc1cnc[nH]1 [[3H]Nα-methylhistamine, reference compound] | – | – | – | – | – | – | – | – | – | – | – | 3.08
